Reference: patent US12168037B2, “Intracellular IL-1 alpha peptide methods and compositions” (CEDARS-SINAI MEDICAL CENTER, priority 2018, dated 2024)
Ends that are not written are not given here. Peptide text beside a SMILES is read from it. * marks the point of attachment. Cbz = O=C(OCc1ccccc1)*

Legend:
[1] = tested on: S87A-IL-1α protein; experiment: S87A-IL-1α protein stability in stably transfected 293 cells (western blot); type: cell-based, human; conditions: 293 cells stably expressing S87A-IL-1α, MG132 5 hours vs DMSO
Protocol: FIGS. 1A-1C depict in accordance with various embodiments of the invention, that serine phosphorylation is required for IL-1α protein stability. FIG. 1A) Relative expression of IL-1α mRNA by qPCR. FIG. 1B) Western Blot of IL-1α protein level in cell lysates. FIG. 1C) Western blot of IL-1α in cell lysates of cells treated with DMSO or MG132 for 5 hours.
Human IL-1α is phosphorylated at the serine 87 (S87) residue (mouse equivalent to S90) of the N-terminal pro-piece by protein kinase A (PKA). […] IL-1α phosphorylation is required for its membrane localization. A mutant IL-1α plasmid cDNA was made for studying the role of IL-1α subcellular localization: the Serine at 87 was exchanged with Alanine (S87A) using the QuikChange Site-Directed Mutagenesis kit, Cat #200518 and human pCMV-IL-1α-flag plasmid DNA (Sino Biological Inc. Cat #HG10128-M-F). Primers were designed by the QuikChange Primer Design software program.
Wild-type (WT)-IL-1α or mutant S87A-IL-1α plasmid was transfected into 293 cells and stable expressing cells lines were made. These cells express similar levels of IL-1α mRNA (FIG. 1A). IL-1α protein was detected only in WT-IL-1α transfected cells but not mutant S87A-IL-1α transfected cells (FIG. 1B). […] Based on this finding, a pseudosubstrate peptide was made to inhibit IL-1α phosphorylation, which may provide a more convenient way to control IL-1α during inflammation. […]

[2] = molecular target: T1, Akt1 (Mus musculus, UniProt P31750); experiment: Akt1 activation (pAkt1) in melanoma cells by western blot; type: cell-based; conditions: B16 or Yumm 1.7 murine melanoma cells, TAT-IL-1α 40 μg/ml, 5 hours, vs TAT-Control peptide
T1 construct: endogenous in cells
Protocol: FIG. 3 depicts in accordance with various embodiments of the invention, that TAT-IL-1α peptide diminished Akt1 activation and increased HK-2 mitochondrial dissociation. B16 or Yumm 1.7 murine melanoma cells were treated with TAT-IL-1α (40 μg/ml) or TAT-Control peptide for 5 hours. HK-2 level and pAkt1 activation in the cytosolic and mitochondrial fraction were detected by Western Blot. GAPDH was measured as a loading control.
FIGS. 10A-10C depict in accordance with various embodiments of the invention, the iIL-1α-peptide reduces Akt1 activation and glycolysis in melanoma cells. […] FIG. 10B) HK-2 and pAkt1 in cytosolic and mitochondrial fraction were determined by WB. […] FIG. 10C) Extracellular acidification rate (ECAR) was measured by Seahorse and compared over time in PBS and iIL-1α-peptide treated mice.
FIGS. 12A-12F depict in accordance with various embodiments of the invention, that the iIL-1α-peptide reduces cutaneous melanoma tumor. FIG. 12A-12B) Membrane lipid strips were incubated with (5 μg) SPDIA or Control peptide and detected by ECL. FIG. 12C) B16 or YUMM1.7 cells were treated with SPDIA or Control peptide (40 μg/ml) for 5 h, and pAkt1 and Akt1 in cell lysate were determined by WB. […] FIG. 12F) Quantification of tumor volume, ** p<0.05. and Quantification of tumor mass, ** p<0.05. n=5. […]

[3] = tested on: hexokinase 2 (HK-2); experiment: HK-2 mitochondrial/cytosolic fraction level in melanoma cells by western blot; type: cell-based, mouse; conditions: B16 or Yumm 1.7 cells, 40 μg/ml, 5 hours, vs TAT-Control
Protocol: B16 cells isolated from tumors from WT mice were treated with iIL-1α-mimic peptide (iIL-1α-peptide) (40 μg/ml) or PBS for 5 hours. […] FIG. 10B) HK-2 and pAkt1 in cytosolic and mitochondrial fraction were determined by WB. COX-IV and GAPDH was used as a loading controls.
B16 cells were isolated from WT mice and cultured in-vitro. The cells were treated with the iIL-1α-mimic peptide (iIL-1α peptide) or PBS for 5 hours (FIG. 10).
B16 or Yumm1.7 melanoma cells were treated with PBS or iIL-1α-peptide (40 μg/ml) for 5 hours, and HK-2 levels and Akt1 activation in the mitochondrial and cytosolic fraction were determined by western blot.

[4] = tested on: B16 melanoma cells; experiment: B16 melanoma lung metastasis/colonization model (tail vein injection); type: in vivo, mouse; conditions: vs TAT-Control peptide; for melanoma (lung) metastasis: B16 cells i.v. in female WT mice, peptide i.v. five days later, lungs harvested five days post treatment
From the text: FIGS. 4A-4C depict in accordance with various embodiments of the invention, that TAT-IL-1α peptide reduced lung metastasis. FIG. 4A) Experimental Schematic (top), metastatic lungs (bottom images). FIG. 4B) Quantification of tumor number in TAT-Control and TAT-IL-1α. FIG. 4C) Melanin content of the metastatic lungs in TAT-Control and TAT-IL-1α.
FIGS. 11A-11C depict in accordance with various embodiments of the invention, that the iIL-1α-peptide reduces melanoma colonization in the lung. FIG. 11A) Experimental scheme and representative lung pictures. FIG. 11B) Quantification of tumor number, **p<0.01. FIG. 11C) Quantification of melanin content, *p<0.05. n=4.
The B16 (also referred herein as “B16F10”) mouse melanoma metastasis model is widely accepted, as B16 cells injected via tail vein reliably colonize the lungs, with easily identifiable tumors after 7-14 days. While the use of a genetic melanoma model may be ideal, it requires the use of immunodeficient mice or the complicated and expensive humanized mice. While the B16 model may have its known caveats, it has repeatedly given very useful novel mechanistic clues that can be further tested in more relevant models, such as genetically engineered mice. In addition to the B16 model, a mouse melanoma cell line with human genetic drivers that are more relevant to human melanoma formation and progression were also used. To this effect, a non-immunogenic cell line (YUMM1.7) was used. In the YUMM1.7 cells, nearly 50% of human melanomas harbor a gain of function in the Braf^V600E Cdkn2a−/− Pten−/− mutations and they form reliable lung tumors following tail vein injection (5×10^5, in 3 weeks). Other common mutations in human melanoma include CDKN2A (familial melanoma gene), inactivation of tumor suppressors including INK4A, ARF, p53, and PTEN, as well as mutations in proto-oncogenes such as H-RAS, N-RAS, and K-RAS.
The peptides were subsequently tested in vivo. B16 melanoma cells were intravenously (i.v.) injected in the tail vein of female WT mice. Five days later, TAT-IL-1α or TAT-Control peptide was injected in the tail vein (i.v.). Five days post treatment, lungs were harvested and examined for metastasis. […] The tumor number and melanin content were diminished in the TAT-IL-1α treatment group compared to TAT-Control peptide treatment. (FIGS. 4B and 4C).
The mouse models used were C57Bl/6 WT or Il1α−/− mice injected with B16 cells (2×10^5 tail vein), (3×10^5 subcutaneous) or C57Bl/6 WT mice injected with YUMM1.7 cells (5×10^5 subcutaneous). The IL-1α, pAkt1 and HK-2 levels were determined by WB. The glycolytic rate in B16 cells was measured by Seahorse.
The iIL-1α-peptide reduces tumor burden in vivo. The protective role of the iIL-1α-peptide against melanoma colonization was investigated. […] The mice were analyzed 5 days later.

[5] = tested on: IL-1α protein; experiment: IL-1α protein level in LPS-stimulated peritoneal macrophages (western blot); type: cell-based; conditions: peritoneal macrophages pretreated with peptide 1 hour, stimulated with LPS (3 hours), compared to LPS alone
Protocol: FIG. 2 depicts in accordance with various embodiments of the invention, that TAT-IL-1α peptide diminished IL-1α protein level. Peritoneal macrophages were pretreated with TAT-IL-1α or TAT-control peptides for 1 hour and stimulated with LPS (3 hours). The IL-1α protein level in cell lysate was detected by Western Blot. GAPDH was measured as a loading control.
The inventors investigated whether TAT-IL-1α peptide triggers IL-1α protein degradation by reducing its serine phosphorylation. Peritoneal macrophages were pretreated with TAT-IL-1α or TAT-Control peptides for 1 hour, stimulated with LPS, and the IL-1α protein level in whole cell lysate was detected by western blot (WB) (FIG. 2). The IL-1α protein level was decreased in TAT-IL-1α treated cells.

[6] = tested on: melanoma cells; experiment: Cytotoxicity to melanoma cells; type: cell-based, mouse; conditions: 40 μg/ml, 5 h
Protocol: We label the SPDIA peptide with 680XL tag (680XL-SPDIA) using the VivoTag 680XL Protein Labeling Kit (PerkinElmer) for determine half-life and membrane penetrating efficiency of SPDIA peptide. B16 or YUMM1.7 melanoma cells are treated with 680XL-SPDIA peptide at various doses (10-100 μg/ml) and durations (1-10 h), and live images for intracellular expression and half-life of the SPDIA peptide are detected by fluorescence microscopy (Keyence, BZ-X). Further, the cellular cytotoxicity to the B16 and YUMM1.7 melanoma cells are measured by LDH cytotoxicity assay kit.
While we do […] expect to observe any cytotoxicity in vitro, at cells at lower concentrations of SPDIA peptide for longer durations (24, 48 h) and assess cell death.

[7] = Membrane lipid strip binding (ECL detection); conditions: membrane lipid strips incubated with peptide (5 μg) or recombinant protein
Protocol: FIGS. 12A-12F depict in accordance with various embodiments of the invention, that the iIL-1α-peptide reduces cutaneous melanoma tumor. FIG. 12A-12B) Membrane lipid strips were incubated with (5 μg) SPDIA or Control peptide and detected by ECL. FIG. 12C) B16 or YUMM1.7 cells were treated with SPDIA or Control peptide (40 μg/ml) for 5 h, and pAkt1 and Akt1 in cell lysate were determined by WB. FIG. 12D) Experimental scheme. FIG. 12E) tumor pictures. FIG. 12F) Quantification of tumor volume, ** p<0.05. and Quantification of tumor mass, ** p<0.05. n=5.
FIGS. 14A-14C show intracellular IL-1α reduced Akt1 activation. FIG. 14A) pAkt1 and total Akt1 in cell lysate was determined by WB. FIG. 14B) Membrane lipid strip was incubated with recombinant human proIL-1α. IL-1α was detected by ECL system. FIG. 14C) PIP3 and Na, K-ATPase levels in plasma membrane fraction were determined by WB.
Intracellular IL-1α reduced Akt1 activation.
IL-1α pro-piece reduces melanoma tumor progression. To investigate the suppressive effect of intracellular proIL-1α in melanoma tumor progression, we designed a short Peptide Derived from IL-1A pro-piece (SPDIA) “GKVLKKRRLSL” (SEQ ID NO:1).

[8] = B16 i.v. model, peptide i.v. day 5

T1 sequence (P31750 whole entry): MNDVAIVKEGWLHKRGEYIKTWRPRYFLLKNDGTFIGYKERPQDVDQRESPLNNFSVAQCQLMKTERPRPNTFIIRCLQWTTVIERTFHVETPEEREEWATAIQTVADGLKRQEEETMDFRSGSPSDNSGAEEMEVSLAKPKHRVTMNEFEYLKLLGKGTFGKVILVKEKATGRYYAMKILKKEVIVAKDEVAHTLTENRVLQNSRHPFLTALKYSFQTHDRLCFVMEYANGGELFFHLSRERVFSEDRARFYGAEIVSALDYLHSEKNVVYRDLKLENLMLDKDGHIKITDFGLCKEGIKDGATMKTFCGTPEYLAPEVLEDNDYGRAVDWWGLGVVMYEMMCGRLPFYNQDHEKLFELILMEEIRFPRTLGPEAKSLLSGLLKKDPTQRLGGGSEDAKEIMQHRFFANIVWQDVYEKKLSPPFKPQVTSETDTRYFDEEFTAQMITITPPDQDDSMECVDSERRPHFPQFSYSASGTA

CC(C)C[C@@H](C=O)NC(=O)[C@H](CC(C)C)NC(=O)[C@H](CC(C)C)NC(=O)OCc1ccccc1 [MG132] (Cbz-Leu-Leu-Leu-aldehyde)
S87A-IL-1α protein in cell lysate [1]: clearly detected

YGRKKRRQRRRLKKRRLSL [TAT-IL-1α peptide]
Akt1 activation (pAkt1) [2]: diminished
Akt1 activation (pAkt1) ([2]; listed as TAT-IL-1α): significantly inhibited
HK-2 mitochondrial dissociation [3]: increased
HK-2 mitochondrial translocation [3]: diminished
melanoma (lung) metastasis [4]: reduced
melanoma (lung) metastasis ([4]; listed as TAT-IL-1α): significantly reduced
melanin content of the metastatic lungs [4, 8]: diminished
tumor number (metastatic lungs) [4, 8]: diminished
IL-1α protein level in whole cell lysate [5]: diminished
IL-1α protein level in whole cell lysate ([5]; listed as TAT-IL-1α): decreased

YGRKKRRQRRRLAKARLAL [TAT-Control peptide, control peptide for TAT-IL-1α peptide, reference compound]
IL-1α protein level in whole cell lysate [5]: slightly decreased

GKVLKKRRLSL [SPDIA, GKVLKKRRLSL]
cytotoxicity [6]: without inducing cytotoxicity

GKVLKKAALSL [control peptide, SPDIA with arginine residues replaced by alanine, reference compound]
interaction with phosphoinositides on membrane lipid strip [7]: fails to bind with PIP and PIP2

B1: proIL-1α: recombinant human proIL-1α incubated with membrane lipid strip (protein, UniProt P01583 1-271, looked up)
pro-form: MAKVPDMFEDLKNCYSENEEDSSSIDHLSLNQKSFYHVSYGPLHEGCMDQSVSLSISETSKTSKLTFKESMVVVATNGKVLKKRRLSLSQSITDDDLEAIANDSEEEIIKPRSAPFSFLSNVKYNFMRIIKYEFILNDALNQSIIRANDQYLTAAALHNLDEAVKFDMGAYKSSKDDAKITVILRISKTQLYVTAQDEDQPVLLKEMPEIPKTITGSETNLLFFWETHGTKNYFTSVAHPNLFIATKQDYWVCLAGGPPSITDFQILENQA
modifications: pro-form
notes: recombinant human proIL-1α incubated with membrane lipid strip
interaction with phosphoinositides on membrane lipid strip [7]: interaction with phosphoinositides such as PI(4)P (PIP), PI(4,5)P2 (PIP2) and PI(3,4,5)P3 (PIP3)
